Data published in the NIST ThermoML archive (doi:10.1016/j.tca.2016.03.009).
Numbers after ± are expanded uncertainties.

What was measured:
[1] = Molar enthalpy of transition or fusion; conditions: DSC
[2] = DSC

## CCCCOc1cc2c3cc(OCCCC)c(OCCCC)cc3c3cc(OCCCC)c(OCCCC)cc3c2cc1OCCCC [2,3,6,7,10,11-hexabutoxytriphenylene]
[1]; Crystal
  Molar enthalpy of transition or fusion: 5.4 ± 0.174 kcal/mol
[1]; Liquid crystal of unknown type
  Molar enthalpy of transition or fusion: 4.47 ± 0.141 kcal/mol
[2]; Crystal
  Triple point temperature: 360.35 ± 1 K
[2]; Liquid crystal of unknown type
  Triple point temperature: 417.95 ± 1 K
